Earlier results, collected in patent US20260207569A1, “LPA1 ANTAGONISTS FOR TREATING INTERSTITIAL LUNG DISEASE” (Bristol-Myers Squibb Company, priority 2022, published 2026).

Tests used:
[1] = system: patients with IPF; settings: cited from earlier work
[2] = system: patients with PPF; settings: 52-week study period; cited from earlier work

In the case of `COC(=O)c1ccc2c(c1)NC(=O)/C2=C(\Nc1ccc(N(C)C(=O)CN2CCN(C)CC2)cc1)c1ccccc1` [nintedanib], the “Effect on decline in lung function” value [1] is given as “significantly reduce the decline in lung function” and the “Progression of lung fibrosis (annual rate of decline in FVC) vs placebo” value [2] is given as “slower progression of lung fibrosis than those who received placebo”.

In the case of `Cc1ccc(=O)n(-c2ccccc2)c1` [pirfenidone], the “Effect on decline in lung function” value [1] is given as “significantly reduce the decline in lung function”.
